Read-outs that look alike come from different tables or passages of the source.
How the values were obtained:
[1] = Doxorubicin and doxorubicinol plasma pharmacokinetics with and without enalapril (randomized cross-over drug-drug interaction study); details: for Cmax: geometric mean ± standard error, 17 women; for AUC(0-∞) geometric mean ratio (90% CI) / Cmax geometric mean ratio (90% CI): with versus without enalapril
Description: (§1) Doxorubicin (60 mg/m^2) was administered as an IV infusion over 5–10 minutes followed by an infusion of cyclophosphamide 600 mg/m^2 over 30–60 minutes every two weeks for a total of four cycles (cumulative doxorubicin 240 mg/m^2). All subjects received aprepitant, dexamethasone and palonsetron prior to each infusion of doxorubicin. All subjects received pegfilgrastim subcutaneously 24–72 hours after doxorubicin and cyclophosphamide.
(§2) This was a randomized, cross-over, single-blinded drug-drug interaction study. All patients received one cycle of AC chemotherapy with enalapril and another cycle of AC with placebo (without enalapril). The two study cycles were consecutive. Patients were randomized to the enalapril intervention or placebo in cycle 1 with cross-over in the subsequent cycle. They began 5 mg of enalapril daily on day −6, and then increased to 10 mg daily on day −2, prior to doxorubicin administration on day 1.
(§3) Blood samples for pharmacokinetics (doxorubicin and doxorubicinol) were obtained in each subject twice (one cycle with enalapril and one with placebo). Samples were drawn at baseline (immediately prior to start of doxorubicin) and then at 0.5, 1, 2, 4, 24 and 48 hours after the end of infusion. Five milliliters of blood was collected at each sampling time and placed in an EDTA tube for doxorubicin and doxorubicinol analysis. Each sample of whole blood was immediately inverted 10 times, placed on wet ice, centrifuged at 3400 rpm for 10 minutes at 4 degrees C, plasma separated and frozen to −80 degrees C within 15 minutes of collection. Samples remained frozen at −80 degrees C until time of analysis. Samples were batched at the time of analysis.
(§4) Doxorubicin and doxorubicinol plasma concentration-time data were analyzed using noncompartmental methods (WinNonLin Professional 6.3). Area-under-the-curve (AUC) (0-∞) was estimated by the log/linear trapezoidal method as AUC (0-t*) + C(t*)/Ke where C(t*) was the last observed concentration and Ke is the terminal first order elimination rate constant. Ke was calculated as the slope of the linear portion of the log of plasma-concentration vs time curve using linear regression analysis. Cmax was at the highest observed concentration.
(§5) The chromatographic separation was performed with a Waters UPLC BEH C18, 2.1 × 50 mm, reversed phase column with a 1.7-micron particle size (Waters, Milford, MA). The mobile phase used for gradient elution consisted of (A) 5 mM ammonium acetate in water, pH 3.5 (B) methanol. […] The column temperature was maintained at 35°C. […] The collision energy was 14 eV, 12 eV and 25 eV, respectively. […] Cartridges were conditioned with 1 mL methanol followed by 1 mL DI water (18 Mohm.cm, type 1). The cartridges were loaded with the samples and centrifuged at 83 × g for 5 minutes and then washed with 1 mL distilled ionized water, centrifuged and transferred to a vacuum manifold for 5 minutes, and eluted with 1 mL methanol. The eluent was evaporated to dryness using a nitrogen evaporator (Zymark Turbo Vap LV, Hopkinton, MA) set at 37°C, and reconstituted in 100 μL of mobile phase (A:B, 45:55). Doxorubicin and doxorubicinol were obtained from Toronto Research Chemicals (Toronto, Ontario, CAN). Daunorubicin was obtained from Sigma-Aldrich (St. Louis, MO). The assays are linear in the range of 1 – 1,000 ng/mL. […] The lower limit of quantification for both analytes is 1 ng/mL.
(§6) The confidence interval is a measure of the precision of the exposure ratio estimate.

[2] = Safety / adverse events in the enalapril-doxorubicin interaction study; type: in vivo, women with breast cancer; details: enalapril 5 then 10 mg daily with doxorubicin and cyclophosphamide
Description: The two study cycles were consecutive. […] There were no serious or grade 3 or 4 adverse events. The most commonly reported drug-related adverse event was dizziness with 33% experiencing grade 1 dizziness. No clinical cardiac events occurred.

[3] = design: method as in Cardinale et al. [2006]; details: 12 months after therapy; enalapril 20 mg daily; patients with troponin elevation; placebo 48.3%, p < 0.001; ref Cardinale et al. [2006]; cited from earlier work
[4] = female, human, in vivo
Description: as §1, §2, §3, §4, §5, §6

[5] = cited from earlier work; for Incidence of symptomatic heart failure: ref Singal and Iliskovic [1998], Yeh et al. [2004], Muggia and Speyer [1999]; for Incidence of asymptomatic declines in ejection fraction: up to, ref Lenihan and Cardinale [2012]
[6] = clinical; details: female, human, in vivo
Description: as §1, §2, §3, §4, §5, §6

| SMILES | AUC0-∞ ([1]; with enalapril 10 mg daily, doxorubicin 60 mg/m^2 IV, plasma, Table 3 geometric mean ± standard error, text mean (standard error)) | Cmax ([1]; with enalapril 10 mg daily, doxorubicin 60 mg/m^2 IV, plasma) | AUC0-∞ ([1]; with enalapril exposure, abstract, Mean (SD)) | AUC(0-∞) geometric mean ratio (90% CI) [1] | Cmax geometric mean ratio (90% CI) [1] | AUC0-∞ ([1]; without enalapril (placebo cycle), doxorubicin 60 mg/m^2 IV, plasma, Table 3 geometric mean ± standard error, text mean (standard error)) | AUC0-∞ ([1]; without enalapril (placebo cycle), doxorubicin 60 mg/m^2 IV, plasma, Table 3 geometric mean ± standard error, text mean (standard error), listed as doxorubicinol) | Cmax ([1]; without enalapril (placebo cycle), doxorubicin 60 mg/m^2 IV, plasma) | AUC0-∞ ([1]; without enalapril, abstract, Mean (SD)) | Subjects with grade 1 dizziness [2] | Left ventricular ejection fraction [3] | AUC0-∞ [4] | Incidence of symptomatic heart failure ([5]; cumulative doses of 400–500 mg/m^2) | Incidence of symptomatic heart failure ([5]; cumulative doses ≥ 600 mg/m^2) | Incidence of asymptomatic declines in ejection fraction ([5]; higher doses) | Incidence of asymptomatic declines in ejection fraction ([5]; moderate doses (240–400 mg/m^2)) | 90% CI for Cmax geometric mean ratio ([1]; reanalysis removing the outlier Cmax (subject with body mass index 53 kg/m^2)) | AUC(0-inf) ([6]; AUC0-∞) | AUC(0-inf) ([6]; iv, 60 mg/m2, AUC(0-∞)) |
| --- | --- | --- | --- | --- | --- | --- | --- | --- | --- | --- | --- | --- | --- | --- | --- | --- | --- | --- | --- |
| COc1cccc2c1C(=O)c1c(O)c3c(c(O)c1C2=O)C[C@@](O)([C@@H](O)CO)C[C@@H]3O[C@H]1C[C@H](N)[C@H](O)[C@H](C)O1 [Doxorubicinol, doxorubicinol] | 1040 ± 80.6 ng·h/mL | 27.81 ± 3.59 ng/mL | 1040 (80.6) hr*ng/ml | 0.96(0.88-1.05) | 0.99(0.91-1.08) | 1056.32 ± 92.03 ng·h/mL | 1056.3 (92.0) ng-hr/mL | 29.66 ± 4.68 ng/mL | 1056.32 (92.03) hr*ng/ml | – | – | – | – | – | – | – | – | – | – |
| CCOC(=O)[C@H](CCc1ccccc1)N[C@@H](C)C(=O)N1CCC[C@H]1C(=O)O [Enalapril, enalapril] | – | – | – | – | – | – | – | – | – | 33% | 62.8% | – | – | – | – | – | – | – | – |
| COc1cccc2c1C(=O)c1c(O)c3c(c(O)c1C2=O)C[C@@](O)(C(=O)CO)C[C@@H]3O[C@H]1C[C@H](N)[C@H](O)[C@H](C)O1 [Doxorubicin] | – | – | – | 1.02(0.96-1.08) | 1.19(0.94-1.51) | – | – | – | – | – | – | 1167.73 (45.26) hr*ng/ml | 3-4% | more than 30% | 30-35% | 20-25% | 0.94-1.21 | 1190 ng·h/mL | 1640 ng·h/mL |

Source: PMC4309801, “Angiotensin Converting Enzyme Inhibitors (ACEI) and doxorubicin pharmacokinetics in women receiving adjuvant breast cancer treatment” (SpringerPlus, 2015)
